Results taken from patent publication US4946957A, “Anti-tumor DC-52 derivatives” (Kyowa Hakko Kogyo Co., Ltd., priority 1986, dated 1990).
Where two headings read alike, the source gives them in different places.

What was measured:
[1] = Acute toxicity (single i.p. administration); settings: mouse, in vivo, ip, ddy mice, method of Behrens-Kolber
Description: Five ddy mice were used for each group as test animals, and each test compound was administered once intraperitoneally to the respective groups of animals. LD50 was calculated from the death-rate of each group according to the method of Behrens-Kolber.

a variety of bacteria = settings: in words; Japanese Published Unexamined Patent Application No. 170189/82; cited from earlier work
[2] = test system: lymphocytic leukemia P-388; settings: in words; Japanese Published Unexamined Patent Application No. 170189/82; cited from earlier work
[3] = test system: lymphocytic leukemia P-388; experiment: Anti-tumor activity against lymphocytic leukemia P-388 (i.p. implanted, single i.p. dose); assay type: in vivo, male CDF mice; settings: Mus musculus, P388, ip, read-out: T/C
Description: The experiment was carried out in the following manner.
Five male CDF mice each having a weight of about 22 g were used for each group as test animals, and 1×10^6 cells of lymphocytic leukemia P-388 tumor were implanted intraperitoneally into the test animals. After 24 hours, 0.2 ml of phosphate-buffered physiological saline containing a test compound was administered once intraperitoneally. The life-prolongingeffect of the compound was represented by T/C.

[4] = in words; Japanese Published Unexamined Patent Application No. 210086/84; cited from earlier work
[5] = dose 25 mg/kg, single i.p., 24 hours after implantation of 1×10^6 P-388 cells, life-prolonging effect
[6] = dose 12.5 mg/kg, single i.p., 24 hours after implantation of 1×10^6 P-388 cells, life-prolonging effect

Structure (SMILES): COc1ccc(C#N)c2c1C1COC3C4CC(C(=O)O)C(C(C2)N13)N4C (stereo not shown) [Compound 10]
- LD50 [1]: > 50 mg/kg

Structure (SMILES): COc1cccc2c1C1COC3C4CC(C(=O)O)C(C(C2)N13)N4C (stereo not shown) [DC-52]
- antibacterial activity (a variety of bacteria): shows antibacterial activity against a variety of bacteria
- anti-tumor activity against lymphocytic leukemia P-388 and the like [2]: has anti-tumor activity against lymphocytic leukemia P-388 and the like

Structure (SMILES): COc1ccc(C#N)c2c1C(CO)N1C(C#N)C3CC(C(=O)O)C(C1C2)N3C (stereo not shown) [Compound 9]
- response vs control in vivo at 25 mg/kg ([3]; 24 h): 140%
- LD50 [1]: > 100 mg/kg

Structure (SMILES): COc1ccc(I)c2c1C(CO)N1C(C#N)C3CC(C(=O)O)C(C1C2)N3C (stereo not shown) [Compound 5]
- response vs control in vivo at 50 mg/kg ([3]; 24 h): 131%
- LD50 [1]: 100 mg/kg

Structure (SMILES): COc1cccc2c1C(CO)N1C(C#N)C3CC(C(=O)O)C(C1C2)N3C (stereo not shown) [DX-52-1]
- anti-tumor activity [4]: having anti-tumor activity

Structure (SMILES): COc1ccc(O)c2c1C(CO)N1C(C#N)C3CC(C(=O)O)C(C1C2)N3C (stereo not shown) [Compound 11]
- response vs control in vivo at 25 mg/kg [3, 5]: 142%

Structure (SMILES): COc1ccc(Br)c2c1C(CO)N1C(C#N)C3CC(C(=O)O)C(C1C2)N3C (stereo not shown) [Compound 3]
- LD50 [1]: 50 mg/kg

Structure (SMILES): COc1ccc(Cl)c2c1C(CO)N1C(C#N)C3CC(C(=O)O)C(C1C2)N3C (stereo not shown) [Compound 1]
- response vs control in vivo at 12.5 mg/kg ([3]; 24 h): 123%
- LD50 [1]: 50 mg/kg

Structure (SMILES): COc1ccc(I)c2c1C1COC3C4CC(C(=O)O)C(C(C2)N13)N4C (stereo not shown) [Compound 6]
- response vs control in vivo at 25 mg/kg [3, 5]: 124%

Structure (SMILES): COc1ccc(Cl)c2c1C1COC3C4CC(C(=O)O)C(C(C2)N13)N4C (stereo not shown) [Compound 2]
- response vs control in vivo at 12.5 mg/kg [3, 6]: 140%

Structure (SMILES): COc1ccc(Br)c2c1C1COC3C4CC(C(=O)O)C(C(C2)N13)N4C (stereo not shown) [Compound 4]
- response vs control in vivo at 12.5 mg/kg [3, 6]: 150%

Structure (SMILES): COc1ccc(C=O)c2c1C(CO)N1C(C#N)C3CC(C(=O)O)C(C1C2)N3C (stereo not shown) [Compound 7]
- response vs control in vivo at 200 mg/kg ([3]; dose 200 mg/kg, single i.p., 24 hours after implantation of 1×10^6 P-388 cells, life-prolonging effect): 138%
